We go through one compound from article PMC9120017, “Inhibition mechanism of the chloride channel TMEM16A by the pore blocker 1PBC” (Nature Communications, 2022).

Each structure is given as a SMILES string. Like-named read-outs stand apart in the source and are kept apart here.

For this experiment, the target named is T1, mouse TMEM16A mutant I551A (Mus musculus, UniProt Q8BHY3, I551A).
T1 construct: expressed in transfected cells; host or cells: HEK293T
T1 sequence (Q8BHY3 1-960 I551A): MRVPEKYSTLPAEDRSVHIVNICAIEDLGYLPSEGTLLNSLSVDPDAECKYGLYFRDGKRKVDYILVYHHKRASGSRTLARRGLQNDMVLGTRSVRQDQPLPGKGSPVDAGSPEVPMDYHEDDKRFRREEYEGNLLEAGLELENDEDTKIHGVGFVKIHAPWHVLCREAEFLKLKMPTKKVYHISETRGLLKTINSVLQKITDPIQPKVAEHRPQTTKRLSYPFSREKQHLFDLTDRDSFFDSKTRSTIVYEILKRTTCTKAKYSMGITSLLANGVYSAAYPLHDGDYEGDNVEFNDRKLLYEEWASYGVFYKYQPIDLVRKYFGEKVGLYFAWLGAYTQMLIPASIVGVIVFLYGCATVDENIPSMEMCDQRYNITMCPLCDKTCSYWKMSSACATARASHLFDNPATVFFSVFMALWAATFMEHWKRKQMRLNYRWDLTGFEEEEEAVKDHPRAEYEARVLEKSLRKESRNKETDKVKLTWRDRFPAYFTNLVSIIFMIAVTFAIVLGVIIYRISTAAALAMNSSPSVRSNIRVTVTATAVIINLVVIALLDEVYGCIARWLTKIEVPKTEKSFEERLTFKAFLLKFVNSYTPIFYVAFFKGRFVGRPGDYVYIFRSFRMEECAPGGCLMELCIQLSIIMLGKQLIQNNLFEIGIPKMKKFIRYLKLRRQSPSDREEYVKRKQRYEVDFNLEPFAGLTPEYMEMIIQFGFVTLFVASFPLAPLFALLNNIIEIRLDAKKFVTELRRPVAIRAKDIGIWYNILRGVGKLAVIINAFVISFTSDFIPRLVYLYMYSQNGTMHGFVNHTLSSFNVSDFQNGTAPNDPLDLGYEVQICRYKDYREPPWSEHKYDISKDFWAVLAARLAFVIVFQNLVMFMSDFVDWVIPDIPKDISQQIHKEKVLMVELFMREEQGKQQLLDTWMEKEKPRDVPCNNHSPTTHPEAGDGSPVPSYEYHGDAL
Put plainly: Inside-out patch recording of 1PBC block, constitutively active mutant I551A. The experiment is classed as cell-based. The settings on record: for remaining activity at 3 µM: 3 µM 1PBC; for remaining activity at 10 µM: 10 µM 1PBC; for remaining activity at 30 µM: 30 µM 1PBC. How it is done:
HEK293T cells (ATCC CRL-1573) were maintained in Dulbecco’s modified Eagle’s medium (DMEM; Sigma-Aldrich) supplemented with 10 U ml^−1 penicillin, 0.1 mg ml^−1 streptomycin (Sigma-Aldrich), 2 mM L-glutamine (Sigma-Aldrich), and 10% FBS (Sigma-Aldrich) in a humidified atmosphere containing 5% CO2 at 37 °C. HEK293S GnTI^− cells (ATCC CRL-3022) were maintained in HyClone HyCell TransFx-H medium (GE Healthcare) supplemented with 10 U ml^−1 penicillin, 0.1 mg ml^−1 streptomycin, 4 mM L-glutamine, 0.15% poloxamer 188 (Sigma-Aldrich), and 1% FBS in an atmosphere containing 5% CO2 at 185 rpm at 37 °C. The ac splice variant of mouse TMEM16A (UniProt ID: Q8BHY3), mouse TMEM16B (UniProt ID: Q8CFW1), or mouse TMEM16F (UniProt ID: Q6P9J9) bearing a 3C cleavage site, a Venus YFP, a Myc tag, and a Streptavidin-binding peptide (SBP) downstream of the open reading frame in a modified pcDNA3.1 vector (Invitrogen) were used as described previously[21],[31]. Mutations were introduced using a modified QuikChange method[58] and were verified by sequencing.
HEK293T cells were transfected with 3–4 μg DNA per 6 cm Petri dish using the calcium phosphate co-precipitation method and were used within 24–96 h after transfection. Recordings were performed on inside-out patches excised from HEK293T cells expressing the construct of interest. Patch pipettes were pulled from borosilicate glass capillaries (O.D. 1.5 mm, I.D. 0.86 mm, Sutter Instrument) and were fire-polished with a microforge (Narishige) before use. Pipette resistance was typically 3–8 MΩ when filled with the recording solutions detailed below. Seal resistance was typically 4 GΩ or higher. Voltage-clamp recordings were made using Axopatch 200B, Digidata 1550, and Clampex 10.7 (Molecular Devices). Analog signals were filtered with the in-built 4-pole Bessel filter at 10 kHz and were digitized at 20 kHz. Solution exchange was achieved using a gravity-fed system through a theta glass pipette mounted on an ultra-fast piezo-driven stepper (Siskiyou). […] All recordings were performed at 20 °C.
A symmetrical ionic condition was used throughout. Stock solution with Ca^2+-EGTA contained 150 mM NaCl, 5.99 mM Ca(OH)2, 5 mM EGTA, and 10 mM HEPES at pH 7.40. Stock solution with EGTA contained 150 mM NaCl, 5 mM EGTA, and 10 mM HEPES at pH 7.40. Free Ca^2+ concentrations were adjusted by mixing the stock solutions at the required ratios calculated using the WEBMAXC program (http://web.stanford.edu/~cpatton/webmaxcS.htm). Patch pipettes were filled with the stock solution with Ca^2+-EGTA, which has a free Ca^2+ concentration of 1 mM. 1PBC (ChemBridge) stock was reconstituted in anhydrous DMSO (Sigma-Aldrich) at 100 mM and stored at −20 °C. Working solutions with 1PBC were prepared by serial dilution. Unless otherwise stated, experiments were performed at a saturating Ca^2+ concentration as shown in Supplementary Table 1 and the primary data were corrected for current rundown as described previously[21],[25].
Concentration-response relations, obtained from the ratio of the I-V plots before and after the application of the blocker, were fitted to the Hill equation,1 I/Imax=1/1+IC50/[blocker]^h where I/Imax is the normalized current responses, IC50 defines the concentration at which inhibition is at its half-maximum, and h is the Hill coefficient.

[1] abbreviates: 0 mV, 2 µM Ca2+, read-out: I/Imax.
The mark [2] stands for this setting: 0 mV, zero Ca2+, read-out: I/Imax.

`N#Cc1c(C(F)(F)F)cc(O)n2c1nc1ccccc12` [1PBC]: the “I/Imax_+80mV” value came to 0.9297 (0Ca, 3 μM 1PBC); 0.7725 (0Ca, 10 μM 1PBC); 0.5277 (0Ca, 30 μM 1PBC); 0.2921 (0Ca, 100 μM 1PBC); 0.7719 (Ca, 1 μM 1PBC); 0.5347 (Ca, 3 μM 1PBC). Also, the “I/Imax_+80mV” value was found to be 0.2656 (Ca, 10 μM 1PBC) and 0.1169 (Ca, 30 μM 1PBC). Besides, the I/Imax_-80mV reads like this: (0Ca, 3 μM 1PBC) 0.9659; (0Ca, 10 μM 1PBC) 0.8504; (0Ca, 30 μM 1PBC) 0.6475; (0Ca, 100 μM 1PBC) 0.3933; (Ca, 1 μM 1PBC) 0.9016; (Ca, 3 μM 1PBC) 0.7407. Moreover, the I/Imax_-80mV (Ca, 10 μM 1PBC) worked out at 0.4452 and the I/Imax_-80mV (Ca, 30 μM 1PBC) came out at 0.2272. Moreover, the remaining activity at 1 µM (1 µM 1PBC, 0 mV, 2 µM Ca2+, read-out: I/Imax) turned out to be 80.9%. In addition, the remaining activity at 3 µM reads like this: under setting [1], 60.1%; under setting [2], 93.2%. The remaining activity at 10 µM under setting [1] was 31.1% and the remaining activity at 10 µM under setting [2] was determined as 80.6%. Further, the remaining activity at 30 µM runs as follows: under setting [1], 14.8%; under setting [2], 58.2%. Moreover, where the note is “100 µM 1PBC, 0 mV, zero Ca2+, read-out: I/Imax”, the remaining activity at 100 µM stood at 33.3%.
